{
  "source": "patent US5368712A",
  "about": "“Biologically mimetic synthetic ion channel transducers” (Synporin Technologies, Inc., priority 1990, dated 1994)",
  "key": {"[1]": {"test": "Single channel recordings of synthetic channel proteins in lipid bilayers", "settings": "for formation of ionic channels in lipid bilayers: single channel recordings in lipid bilayers", "procedure": "Using established recording, filtering, digitizing and data processing techniques, single channel recording were made of single channel recordings for tethered tetrameric M2δ proteins and free M2δ proteins (FIGS. 7 and 8 respectively). Conductance (V) and lifetime (T) values were determined from a multiplicity of events, and single channel open and closed lifetimes were discriminated using a published pattern recognition algorithm.\nThese recordings were made in symmetric 0.5M KCl (pH 7.4) and recorded at 100 mV. […] These were recorded at 0.5M NaCl (pH 7.2) and 100 mV.\nPlanar lipid bilayers into which the synthetic ion protein channels can be incorporated are prepared using commonly available and well understood lipids and bilayer formation techniques. For example, planar bilayers can be formed by hydrophobic apposition of two lipid monolayers initially formed at an air-water interface. The electrical properties of such protein-free bilayers can be examined using known techniques. Peptides can be incorporated into the bilayers from mixed lipid-peptide monolayers."}, "[2]": {"molecular_target": "T1, tetrameric M2δ synthetic porin (Tetronarce californica, UniProt P02718)", "T1 construct": "multi-functional carrier template (peptide backbone of at least seven amino acids with four basic attachment residues); made in house; host or cells: chemical peptide synthesis (no expression host)", "test": "Block of tetrameric M2δ synthetic porin by a local anaesthetic derivative, single channel recordings", "type": "biochemical, Torpedo californica", "settings": "25 μM QX-222", "procedure": "Furthermore, the pharmacological specificity of the pure structure generated by the tetrameric M2δ synthetic porin was examined by using a quaternary derivative (QX-222) of the local anaesthetic lidocaine. QX-222 is known to transiently block the flow of current through the AChR channel, thereby reducing the channel open lifetime. FIGS. 9A and […] show comparative single channel recordings of this synthetic porin before (FIG. 9A) and after (FIG. 9B) addition of 25 μM QX-222. The result is that the characteristic brief and long open lifetimes exist prior to application of the anaesthetic, as previously shown in FIG. 7."}},
  "note": "“And” between values parts separate entries of the source, which are not always exact repeats. Equal values may be shown once. “Also recorded” adds a separate entry of the source.",
  "data": [
    {"compound": "XPDWNWLDFTVITFAYVTEFVDL [22-residue synthetic peptide that mimics the electrical properties of a voltage dependent sodium channel]", "values": [
      {"measurement": "selectivity cations versus anions", "setting": "[1]", "result": "discriminates cations over anions"},
      {"measurement": "selectivity sodium ion versus potassium ion", "setting": "[1]", "result": "nonselective between sodium ion and potassium ion"},
      {"measurement": "single channel open and close lifetimes", "setting": "[1]", "result": "in the millisecond time range"},
      {"measurement": "voltage dependence", "setting": "[1]", "result": "no specific voltage dependence"},
      {"measurement": "single channel conductance of the most frequent event", "setting": "[1]; 0.5M sodium chloride", "result": 20, "unit": "pS"}
    ]},
    {"compound": "9 amino acid backbone used as template: nine-residue carrier template K K K P G K E K G without attached oligopeptides (KKKPGKEKG)", "values": [
      {"measurement": "formation of ionic channels in lipid bilayers", "setting": "[1]", "result": "showed similar activity"}
    ]},
    {"compound": "Cc1cccc(C)c1NC(=O)C[N+](C)(C)C", "note": "[QX-222]", "values": [
      {"measurement": "effect on channel open time", "setting": "[2]", "result": "drastically shortened"},
      {"measurement": "effect on single channel conductance V", "setting": "[2]", "result": "virutally unaffected"}
    ]},
    {"compound": "EKMSTAISVLLAQAVFLLLTSQR [free (monomeric) M2δ, untethered 23-mer synthetic peptide mimicking the acetylcholine receptor M2δ subunit]", "values": [
      {"measurement": "single channel conductance V of distinct events", "setting": "[1]; 0.5M NaCl (pH 7.2), 100 mV", "result": "20 pS and 40 pS"},
      {"measurement": "formation of ionic channels in lipid bilayers", "setting": "[1]", "result": "form discrete ion channels in lipid bilayers; also recorded: forms channels of heterogeneous amplitudes and open lifetimes"}
    ]}
  ]
}
